Patent publication US4362718A, “Agent for curing peripheral circulation insufficiency” (Yamanouchi Pharmaceutical Co., Ltd., priority 1979, dated 1982)
Like-named read-outs stand apart in the source and are kept apart here.

Columns and labels:
[1] = test system: red blood corpuscles through fine blood vessels; assay: Passability of red blood corpuscles through vital fine blood vessels (exposed rabbit mesentery, reduced blood pressure); type: in vivo
Description: A rabbit was subjected to laparotomy under urethane anesthesia to expose the mesentery and the passability of the red blood corpuscles through fine blood vessels was observed by means of a stereomicroscope.

[2] = test system: red blood corpuscles; assay: Fine opening passability of red blood corpuscles (nitrocellulose membrane filter, 3.0 μm); type: cell-based, human; details: 37° C., 30 minutes, 3.0 μm filter, 80 mmHg/cm^2
Protocol: (§1) (1) One part by volume of human blood was mixed with 1 part by volume of a preservative solution (acid-citrate-dextrose solution) and preserved at 4° C. Just before using, it was washed 4 times with about 8 times by volume of a saline solution (2,000 rotations/minute, for 3 minutes) and a 2% saline floating solution of red blood corpuscles was prepared.
(§2) (2) A solution prepared by dissolving α1 -acid glycoprotein or a comparative substance shown in FIG. 1 in a saline solution was mixed with the same amount of the saline floating solution of red blood corpuscles, and the mixture was moderately shaked for 30 minutes at 37° C. 1 ml of the mixture was taken out and filtered by means of a nitrocellulose membrane filter (produced by Saltrius Co., diameter: 13 mm, diameter of fine openings: 3.0 μm) at 37° C. with pressing under 80 mmHg/cm^2. 0.5 ml of the filtrate was taken out and subjected to light centrifugal separation (1,500 rotations/minute, for 2 minutes). To the precipitate was added 5 ml of deionized water to cause hemolysis at a low tonicity, and a ratio of red blood corpuscles passing through the filter was calculated from the absorbance (420 nm) thereof. Further, percent hemolysis caused during the operation was calculated from the absorbance of the supernatant fluid of the filtrate.

[3] = test system: red blood corpuscles
Protocol: as §1, §2

[4] = test system: HeLaS3; assay: Toxicity to cultivated cells, HeLaS3; type: cell-based
[5] = test system: Mouse; assay: Acute toxicity, mouse; type: in vivo
[6] = test system: Rat; assay: Acute toxicity, rat; type: in vivo
[7] = test system: EB virus transform lymphoblast P3HR-1; assay: Toxicity to cultivated cells, P3HR-1; type: cell-based
[8] = test system: Human fetal lung fiber cell; assay: Toxicity to cultivated cells, human fetal lung fiber cell; type: cell-based
[9] = 100 μg-1 mg/kg, arterial blood pressure 40-60 mmHg/cm^2

Substance	stagnation of the blood flow and stopping of the blood corpuscles ([1]; in case of using dextran sulfate, reduced blood pressure)	passage of red blood corpuscles through the filter ([2]; 0.1% solution, compared with α1 -acid glycoprotein)	percent hemolysis in case of passing through fine openings ([3]; human, red blood cells) [%]	Toxicity (50% Inhibition of propagation) [4] [µg/mL]	LD50 ([5]; intraperitoneally)	LD50 ([5]; intravenously)	LD50 ([5]; subcutaneously)	LD50 ([6]; intraperitoneally)	LD50 ([6]; intravenously)	LD50 ([6]; subcutaneously)	impilation of corpuscles and separation of the corpuscle component from the serum [1, 9]	movement of red blood corpuscles [1, 9]	passability of red blood corpuscles through fine blood vessels under reduced blood pressure ([1]; continuously into local dominating artery or into a vein, 100 μg-1 mg/kg, blood pressure reduced by blood-letting or pentobarbital)	Toxicity (50% Inhibition of propagation) [7] [µg/mL]	passage of red blood corpuscles through the filter ([2]; 0.05% solution, saline control did not pass at all)	percent hemolysis in case of passing through fine openings ([3]; 0.05% solution, saline alone as high as 20%) [%]	Toxicity (50% Inhibition of propagation) [8] [µg/mL]
dextran sulfate [reference compound]	such stagnation of the blood flow and stopping of the blood corpuscles were not observed	passage of the red blood corpuscles was observed too, but the effect was small as compared with the case of α1 -acid glycoprotein	25 to 30	–	–	–	–	–	–	–	–	–	–	–	–	–	–
α1 -acid glycoprotein: active ingredient of the present invention; substance known already, produced by the process described in Unexamined patent publication Sho 53-37187	–	–	–	> 100	> 1,000 mg/kg	> 1,000 mg/kg	> 1,000 mg/kg	> 1,000 mg/kg	> 1,000 mg/kg	> 1,000 mg/kg	impilation of corpuscles and separation of the corpuscle component from the serum were not observed	the red blood corpuscles moved in the normal direction though the movement was slow	the passability of red blood corpuscles was good	> 100	the red blood corpuscles passed through the filter with hardly causing hemolysis	5	> 100
